In patent publication US9328093B2, “Selective inhibitors of ubiquitin specific protease 7, the pharmaceutical compositions thereof and their therapeutic applications” (HYBRIGENICS SA, priority 2010, dated 2016) one finds IC50 data, which are given here for 9 molecules.

A word on the IC50: it is the point on the concentration scale where inhibition reaches its midpoint. A higher IC50 goes with weaker potency.

For this test, the target named is T1, USP8 (Homo sapiens, UniProt P40818).
T1 construct: His (from pFastBac-HT vector) (N); made in house; host or cells: Sf9 or High Five insect cells, baculovirus
T1 sequence (P40818 1-1118): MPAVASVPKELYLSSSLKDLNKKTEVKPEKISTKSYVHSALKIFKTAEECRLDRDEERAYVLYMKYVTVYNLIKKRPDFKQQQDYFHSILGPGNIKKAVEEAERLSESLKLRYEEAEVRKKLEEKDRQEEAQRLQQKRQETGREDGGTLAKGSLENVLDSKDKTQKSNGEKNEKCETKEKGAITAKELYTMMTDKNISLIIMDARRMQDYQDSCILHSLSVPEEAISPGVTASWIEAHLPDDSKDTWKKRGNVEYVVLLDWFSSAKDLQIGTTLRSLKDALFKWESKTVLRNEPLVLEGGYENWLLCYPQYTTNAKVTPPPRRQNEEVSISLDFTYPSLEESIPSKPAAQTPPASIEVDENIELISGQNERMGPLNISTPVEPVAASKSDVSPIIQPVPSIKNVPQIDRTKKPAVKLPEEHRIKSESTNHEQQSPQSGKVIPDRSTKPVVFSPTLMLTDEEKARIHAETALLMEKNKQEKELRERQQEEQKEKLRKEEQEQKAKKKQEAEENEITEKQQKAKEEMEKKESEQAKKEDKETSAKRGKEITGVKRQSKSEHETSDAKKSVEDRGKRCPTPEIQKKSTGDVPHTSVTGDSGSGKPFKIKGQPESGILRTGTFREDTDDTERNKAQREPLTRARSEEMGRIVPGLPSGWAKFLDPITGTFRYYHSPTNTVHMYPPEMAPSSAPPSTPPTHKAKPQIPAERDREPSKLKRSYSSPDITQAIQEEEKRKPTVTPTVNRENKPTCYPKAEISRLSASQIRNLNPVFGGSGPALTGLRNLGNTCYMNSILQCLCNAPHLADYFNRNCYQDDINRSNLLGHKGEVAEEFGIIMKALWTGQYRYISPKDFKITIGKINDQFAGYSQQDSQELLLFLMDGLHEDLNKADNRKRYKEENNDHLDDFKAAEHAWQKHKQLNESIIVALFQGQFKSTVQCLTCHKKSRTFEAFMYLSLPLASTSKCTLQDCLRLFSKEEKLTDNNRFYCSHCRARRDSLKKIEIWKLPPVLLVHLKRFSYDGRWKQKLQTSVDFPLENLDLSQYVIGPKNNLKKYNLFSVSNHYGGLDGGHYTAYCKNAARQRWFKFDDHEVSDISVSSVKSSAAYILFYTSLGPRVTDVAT
Nature of the test: USP8 activity assay (Ub-AMC substrate). The test is classed as biochemical. The note with it: Ub-AMC 300 nM, USP8 1.36 nM. An excerpt:
The cDNA encoding USP8 was obtained by PCR amplification from placenta mRNA. USP8 cDNA was subcloned by PCR into a baculovirus expression vector (pFastBac-HT; Invitrogen). A cDNA encoding a mutated USP8 was generated by mutagenic PCR. The corresponding protein encodes a cysteine to alanine substitution at residue 786. The sequences were ascertained by sequencing of the entire open reading frame. Bacmids encoding USP8 were generated following DH10bac transposition. The corresponding bacmids were transfected into insect cells (Sf9). Viruses were recovered from culture supernatant and amplified twice. Insect cells (Sf9 or High Five; Invitrogen) were infected for 72 hours. Total cell lysates were harvested and lyzed in lysis buffer (Tris HCl 50 mM pH7.6; 0.75% NP40; 500 mM NaCl; 10% glycerol; 1 mM DTT; 10 mM imidazole; Protease Inhibitor Cocktail; AEBSF 20 μg·ml^−1; Aprotinin 10 μg·ml^−1). Proteins were affinity purified on metal affinity resins (Talon Metal affinity resin; BD Biosciences). Bound materials were extensively washed in wash buffer (50 mM Sodium Phosphate pH 7.0; 300 mM NaCl; 10 mM imidazole; 0.5% Triton X-100; 10% glycerol) and eluted from the resin in 250 mM imidazole-containing wash buffer. Proteins were dialyzed in dialysis buffer (Tris HCl pH 7.6 20 mM; NaCl 200 mM; DTT 1 mM; EDTA 1 mM; 10% Glycerol). Proteins purifications were analyzed on 4-12% NuPAGE (Invitrogen).
USP8 was diluted in USP buffer (50 mM Tris HCl; 0.5 mM EDTA; 5 mM DTT; 0.01% Triton X-100; Bovine Serum Albumin 0.05 mg·ml^−1 pH8.8). Compounds stocks (100 mM) were stored at −20° C. in DMSO. Compounds were tested at different concentrations: from 200 μM to 91 nM.
Reactions were performed as duplicates in Black 384 well plates (small volume microplates; Greiner; 10 μl final reaction volume). The substrate concentration for USP8 was 300 nM Ub-AMC (Boston Biochem). The concentration of the enzyme (USP8) in specificity assays was 1.36 nM. The concentrations were determined in order to perform specificity assays under initial velocities at fixed substrate concentration. Compounds were pre-incubated with enzymes for 30 minutes at 25° C. Reactions were initiated by addition of substrate to the plates containing the enzymes (+/− compounds) diluted in assay buffer. Reactions were incubated for 60 minutes at 37° C. Reactions were stopped by adding acetic acid (100 mM final). Readings were performed on a Pherastar Fluorescent Reader (BMG). λ Emission 380 nm: λ Excitation=460 nm. Data (mean values +/− standard deviation) were analyzed as % of control (no compound) and plotted as percentage versus the Log of the compound concentration using GraphPad (Prism). Data were fitted to a sigmoidal model (variable slope).
Turning to `CN1CCCC1CCNC(=O)c1ccc2c(Cl)c3c(nc2c1)CCCC3` (stereo not drawn) [Example 17, 9-chloro-N-(2-(1-methylpyrrolidin-2-yl)ethyl)-5,6,7,8-tetrahydroacridino-3-carboxamide], the half-maximal inhibitory concentration (IC50) is over 200 µM.
`O=C(NCc1cccc(CN2CCCC2)c1)c1ccc2c(Cl)c3c(nc2c1)CCCC3` [Example 18, 9-chloro-N-(3-(pyrrolidin-1-ylmethyl)benzyl)-5,6,7,8-tetrahydroacridine-3-carboxamide] gave an IC50 of over 200 µM.
The value for `O=C(Nc1cccc(CN2CCCC2)c1)c1ccc2c(Cl)c3c(nc2c1)CCCC3` [Example 19, 9-chloro-N-(3-(pyrrolidin-1-ylmethyl)phenyl)-5.6,7,8-tetrahydroacridine-3-carboxamide] was over 200 µM; that for `CC1CCCCN1CCCNC(=O)c1ccc2c(Cl)c3c(nc2c1)CCCC3` (stereo not drawn) [Example 20, 9-chloro-N-(3-(2-methylpiperidin-1-yl)propyl)-516,7,8-tetrahydroacridine-3-carboxamide] was over 200 µM; that for `O=C(NCc1ccc(CN2CCCC2)cc1)c1ccc2c(Cl)c3c(nc2c1)CCCC3` [Example 21, 9-chloro-N-(4-(pyrrolidin-1-ylmethyl)benzyl)-5,6,7,8-tetrahydroacridine-3-carboxamide] was over 200 µM.
The molecule `COc1ccc(CN2CCC(CNC(=O)c3ccc4c(Cl)c5c(nc4c3)CCCC5)CC2)cc1` [Example 22, 9-chloro-N-((1-(4-methoxybenzyl)piperidin-4-yl)methyl)-5,6,7,8-tetrahydroacridine-3-carboxamide] displayed an IC50 of over 200 µM.
The value for `CN(C)c1ccc(CN2CCC(CNC(=O)c3ccc4c(Cl)c5c(nc4c3)CCCC5)CC2)cc1` [Example 23] was over 200 µM.
Then `O=C(NCC1CCNCC1)c1ccc2c(Cl)c3c(nc2c1)CCCC3` [Example 24, 9-chloro-N-((piperidin-4-yl)methyl)-5,6,7,8-tetrahydroacridine-3-carboxamide], with about 200 µM; and `O=C(NCC(CN1CCCC1)C(O)c1ccccc1)c1ccc2c(Cl)c3c(nc2c1)CCCC3` (stereo not drawn) [Example 25, 9-chloro-N-(3-hydroxy-3-phenyl-2-pyrrolidin-1-ylmethylpropyl)-5,6,7,8-tetrahydroacridine-3-carboxamide], with over 200 µM.
